The values that follow come from patent US5610160A, “Topical 5-fluorouracil prodrug composition and method” (priority 1994, dated 1997).

The conditions of data set [1]: cited from earlier work.
The conditions of data set [2]: 22° C., cited from earlier work.
The conditions of data set [3]: 37° C., 80% human plasma, cited from earlier work.
Data set [4] is described as follows: Diffusion cell experiments: delivery of 5-FU through hairless mouse skin. Type of data set: in vitro ADME. Particulars: for Ji, flux of 5-FU through the skin: from suspensions of prodrugs in IPM, hairless mouse skin; for Cs, amount of 5-FU in the skin: leached from hairless mouse skin in 24 hours subsequent to application of prodrug in vehicle for 48 hours; for Jj, flux of theophylline through the skin after application of the prodrug/formulation (relative damage): theophylline from suspension in PG. Here is the method: The diffusion cell experiments were conducted as described by Sloan et al in J. Invest.
^b Flux in mg/cm^2 hour of 5FU from suspensions of prodrugs in
^c Amount of 5FU in mg leached from hairless mouse skin in 24 hours
subsequent to application of prodrug in vehicle for 48 hours.
^d Flux in mg/cm^2 hour of theophylline from suspension in PG.

Data set [5] can be described thus: Solubility of prodrug in isopropyl myristate (IPM). Particulars: for solubility: isopropyl myristate, organic solvent or mixture; for CIPM, equivalent mg of 5FU/ml: IPM, 23 ± 1° C., value in parentheses. The procedure: The results from the determination of the physicochemical properties are recorded in the tables as CIPM (the saturated solubility of the prodrug in the isopropyl myristate (IPM) vehicle/formulation in which the prodrug was applied to the mouse skins), K (the partition coefficients of the prodrug between IPM and a pH 4.0 acetate buffer) and Cw (the solubility of the prodrug in pH 4.0 acetate buffer calculated from the partition coefficient and the IPM solubility).

The nature of data set [6]: shake-flask, brief shaking, IPM phase analyzed immediately. Particulars: 23 ± 1 °C.
Data set [7] can be described thus: Partition coefficient between IPM and pH 4.0 acetate buffer. Type of data set: physicochemical. Particulars: 23 ± 1° C. An excerpt: ^a Partition coefficient between IPM and pH 4.0 acetate buffer at 23
For data set [8] the following is noted: 37° C., 0.05 M phosphate buffer pH 7.4, cited from earlier work.
The next data set is described as follows: not told. Particulars: 22 °C; cited from earlier work.
Another data set concerns skin malignancies. Particulars: topical, cited from earlier work.
The mark [9] stands for this setting: 22° C., Int. J. Pharm. 21, 349, Buur et al (1984).
Where [10] appears, read: 22° C., J. Pharm. Sci. 75, 522, Buur et al (1986), compound 11 from Int. J. Pharm. 36, 41 (1987).
Setting [11] is: Buur et al (1986), compound 11 from Buur et al (1987).

≈ marks a conversion by molar mass, not a printed value. Where two headings read alike, the source gives them in different places.

What is called solubility is the concentration that dissolves in the medium under given conditions. For `CC(=O)n1c(=O)[nH]cc(F)c1=O` [Compound 13], the “log K, octanol/pH 4.0 acetate buffer” value in data set [1] (setting [9]) was -0.34. In [2] (Buur et al (1984)), the “Cw, solubility at pH 4.0 acetate buffer” value is 42.8 mg/ml. Further, in data set [3] (Buur et al (1984)), the “Half-life, 80% Plasma” value is 4.6 min. Further, in data set [4], the “Ji, flux of 5-FU through the skin” value stood at 0.575 mg/cm^2 hour; the “Cs, amount of 5-FU in the skin” value is reported as 1.77 mg; the “Jj, flux of theophylline through the skin after application of the prodrug/formulation (relative damage)” value stood at 0.282 mg/cm^2 hour. Also, the solubility in data set [5] is 74 µg/mL (≈ 0.43 mM). In data set [6], the “log partition isopropyl myristate / pH 4.0 acetate buffer” value amounted to 0.040 concentration ratio. Further, the “K, partition coefficient between IPM and pH 4.0 acetate buffer” value in data set [7] amounted to 0.040. For the same compound, the “Half-life, Buffer” value in data set [8] (Buur et al (1984)) was 43 min. The “log partition octanol / pH 4.0 acetate buffer” value in the data set “not told” was -0.34 log10 concentration ratio.
As for `CCCCOC(=O)n1cc(F)c(=O)[nH]c1=O` [Compound 10], the “log K, octanol/pH 4.0 acetate buffer” value in data set [1] (setting [10]) is recorded as 0.89. The “Cw, solubility at pH 4.0 acetate buffer” value in data set [2] (setting [11]) was 5.9 mg/ml. Besides, in data set [3] (setting [11]), the “Half-life, 80% Plasma” value is reported as 3.1 min. Moreover, in data set [4], the “Ji, flux of 5-FU through the skin” value is 0.284 mg/cm^2 hour; the “Cs, amount of 5-FU in the skin” value turned out to be 0.54 mg; the “Jj, flux of theophylline through the skin after application of the prodrug/formulation (relative damage)” value came out at 0.321 mg/cm^2 hour. Besides, the solubility in data set [5] worked out at 7770 µg/mL (≈ 33.8 mM). Besides, the “log partition isopropyl myristate / pH 4.0 acetate buffer” value in data set [6] is given as 1.46 concentration ratio. Also, the “K, partition coefficient between IPM and pH 4.0 acetate buffer” value in [7] was determined as 1.46. The “Half-life, Buffer” value in data set [8] (setting [11]) is listed as 550 min. Further, the “log partition octanol / pH 4.0 acetate buffer” value in “not told” is reported as 0.89 log10 concentration ratio.
With `O=c1[nH]cc(F)c(=O)[nH]1` [Compound 5-FU, 5-fluorouracil], in [1] (octanol/acetate buffer, pH 4), the “log K, octanol/pH 4.0 acetate buffer” value was -0.83. In addition, the “Cw, solubility at pH 4.0 acetate buffer” value in data set [2] (setting [11]) was 11.1 mg/ml. Further, in [4], the “Ji, flux of 5-FU through the skin” value came to 0.0311 mg/cm^2 hour; the “Cs, amount of 5-FU in the skin” value is on record as 0.48 mg; the “Jj, flux of theophylline through the skin after application of the prodrug/formulation (relative damage)” value is listed as 0.215 mg/cm^2 hour. Besides, the solubility in data set [5] was 6.4 µg/mL (≈ 0.0492 mM). The treating superficial lesions result with skin malignancies (actinic keratoses and basal cell carcinomas) is on record as “successful”. Further, the “treating deeper lesions or actinic keratoses of the extremities” value in the data set with skin malignancies is “ineffective”.
Take `CCOC(=O)n1cc(F)c(=O)[nH]c1=O` [Compound 8]: the “log K, octanol/pH 4.0 acetate buffer” value in data set [1] (setting [10]) is given as -0.17. In [2] (setting [11]), the “Cw, solubility at pH 4.0 acetate buffer” value is given as 6.9 mg/ml. Further, in data set [3] (setting [11]), the “Half-life, 80% Plasma” value is listed as 2.1 min. In data set [4], the “Ji, flux of 5-FU through the skin” value amounted to 0.770 mg/cm^2 hour; the “Cs, amount of 5-FU in the skin” value turned out to be 2.38 mg; the “Jj, flux of theophylline through the skin after application of the prodrug/formulation (relative damage)” value turned out to be 0.357 mg/cm^2 hour. In addition, in [5], the “CIPM, equivalent mg of 5FU/ml” value is given as 1.70 equivalent mg of 5FU/ml and the solubility came out at 2640 µg/mL (≈ 13.1 mM). The “log partition isopropyl myristate / pH 4.0 acetate buffer” value in data set [6] turned out to be 0.0757 concentration ratio. For the same compound, the “K, partition coefficient between IPM and pH 4.0 acetate buffer” value in data set [7] is recorded as 0.0757. Further, in [8] (setting [11]), the “Half-life, Buffer” value is 550 min. Moreover, the “log partition octanol / pH 4.0 acetate buffer” value in the data set “not told” was -0.17 log10 concentration ratio.
On to `COC(=O)n1cc(F)c(=O)[nH]c1=O` [Compound 7], for which, in data set [1] (setting [10]), the “log K, octanol/pH 4.0 acetate buffer” value is -0.68. In addition, the “Cw, solubility at pH 4.0 acetate buffer” value in data set [2] (setting [11]) is listed as 23.3 mg/ml. In [4], the “Ji, flux of 5-FU through the skin” value is 0.343 mg/cm^2 hour; the “Cs, amount of 5-FU in the skin” value was found to be 1.08 mg; the “Jj, flux of theophylline through the skin after application of the prodrug/formulation (relative damage)” value worked out at 0.337 mg/cm^2 hour. The solubility in data set [5] amounted to 400 µg/mL (≈ 2.13 mM). Besides, in data set [6], the “log partition isopropyl myristate / pH 4.0 acetate buffer” value was determined as 0.026 concentration ratio. Moreover, in [7], the “K, partition coefficient between IPM and pH 4.0 acetate buffer” value came out at 0.026. Also, in data set [8] (setting [11]), the “Half-life, Buffer” value was 190 min. Moreover, the “log partition octanol / pH 4.0 acetate buffer” value in “not told” is -0.68 log10 concentration ratio.
`CCCC(=O)n1c(=O)[nH]cc(F)c1=O` [Compound 15]: the “log K, octanol/pH 4.0 acetate buffer” value in data set [1] (setting [9]) was 0.67. For the same compound, the “Half-life, 80% Plasma” value in [3] (Buur et al (1984)) is recorded as 28 min. Further, in data set [4], the “Jj, flux of theophylline through the skin after application of the prodrug/formulation (relative damage)” value is 0.204 mg/cm^2 hour. For the same compound, in data set [5], the “CIPM, equivalent mg of 5FU/ml” value is 2.89 equivalent mg of 5FU/ml and the solubility amounted to 4440 µg/mL (≈ 22.2 mM). Moreover, the “log partition isopropyl myristate / pH 4.0 acetate buffer” value in data set [6] turned out to be 0.97 concentration ratio. Moreover, the “K, partition coefficient between IPM and pH 4.0 acetate buffer” value in data set [7] is recorded as 0.97. In [8] (Buur et al (1984)), the “Half-life, Buffer” value was 58 min. The “log partition octanol / pH 4.0 acetate buffer” value in “not told” is given as 0.67 log10 concentration ratio.
In the case of `CCCCCCOC(=O)n1cc(F)c(=O)[nH]c1=O` [Compound 11], the “log K, octanol/pH 4.0 acetate buffer” value in data set [1] (setting [10]) is 2.04. Also, in data set [2] (setting [11]), the “Cw, solubility at pH 4.0 acetate buffer” value is listed as 1.5 mg/ml. Further, the “Half-life, 80% Plasma” value in data set [3] (setting [11]) is reported as 2.0 min. In addition, in data set [4], the “Ji, flux of 5-FU through the skin” value is reported as 0.195 mg/cm^2 hour; the “Cs, amount of 5-FU in the skin” value turned out to be 1.38 mg; the “Jj, flux of theophylline through the skin after application of the prodrug/formulation (relative damage)” value is recorded as 0.321 mg/cm^2 hour. The solubility in data set [5] is 8700 µg/mL (≈ 33.7 mM). Moreover, the “log partition isopropyl myristate / pH 4.0 acetate buffer” value in data set [6] came out at 31.1 concentration ratio. Moreover, the “K, partition coefficient between IPM and pH 4.0 acetate buffer” value in data set [7] was 31.1. Moreover, the “Half-life, Buffer” value in data set [8] (setting [11]) is recorded as 550 min. In the data set “not told”, the “log partition octanol / pH 4.0 acetate buffer” value was 2.04 log10 concentration ratio.
As to `CCCCC(=O)n1cc(F)c(=O)[nH]c1=O` [Compound 4], in [4], the “Ji, flux of 5-FU through the skin” value stood at 0.133 mg/cm^2 hour; the “Cs, amount of 5-FU in the skin” value was found to be 2.08 mg; the “Jj, flux of theophylline through the skin after application of the prodrug/formulation (relative damage)” value is recorded as 0.144 mg/cm^2 hour. Also, the solubility in data set [5] came to 8390 µg/mL (≈ 39.2 mM). Besides, the “log partition isopropyl myristate / pH 4.0 acetate buffer” value in data set [6] came to 11.3 concentration ratio. In addition, the “K, partition coefficient between IPM and pH 4.0 acetate buffer” value in data set [7] is 11.3.
In the case of `CCC(=O)n1c(=O)[nH]cc(F)c1=O` [Compound 14], the “log K, octanol/pH 4.0 acetate buffer” value in [1] (setting [9]) is 0.19. Besides, the “Cw, solubility at pH 4.0 acetate buffer” value in data set [2] (Buur et al (1984)) is given as 35.3 mg/ml. For the same compound, the “Half-life, 80% Plasma” value in [3] (Buur et al (1984)) is reported as 20 min. Moreover, in [4], the “Jj, flux of theophylline through the skin after application of the prodrug/formulation (relative damage)” value amounted to 0.318 mg/cm^2 hour. Moreover, in [5], the “CIPM, equivalent mg of 5FU/ml” value is given as 1.83 equivalent mg of 5FU/ml and the solubility was determined as 2620 µg/mL (≈ 14.1 mM). For the same compound, the “log partition isopropyl myristate / pH 4.0 acetate buffer” value in data set [6] worked out at 0.088 concentration ratio. For the same compound, the “K, partition coefficient between IPM and pH 4.0 acetate buffer” value in data set [7] turned out to be 0.088. The “Half-life, Buffer” value in data set [8] (Buur et al (1984)) was 50 min. The “log partition octanol / pH 4.0 acetate buffer” value in the data set “not told” was 0.19 log10 concentration ratio.
For the compound `CC(=O)n1cc(F)c(=O)n(C(C)=O)c1=O` [Compound 17], in data set [4], the “Ji, flux of 5-FU through the skin” value stood at 0.291 mg/cm^2 hour; the “Cs, amount of 5-FU in the skin” value amounted to 1.24 mg; the “Jj, flux of theophylline through the skin after application of the prodrug/formulation (relative damage)” value was found to be 0.282 mg/cm^2 hour. Further, in data set [5], the solubility was 5600 µg/mL (≈ 26.1 mM). Further, in [6], the “log partition isopropyl myristate / pH 4.0 acetate buffer” value amounted to 2.93 concentration ratio. Also, the “K, partition coefficient between IPM and pH 4.0 acetate buffer” value in [7] is 2.93.
As to `CCCOC(=O)n1cc(F)c(=O)[nH]c1=O` [Compound 9], in [4], the “Ji, flux of 5-FU through the skin” value is 0.294 mg/cm^2 hour; the “Cs, amount of 5-FU in the skin” value amounted to 0.65 mg; the “Jj, flux of theophylline through the skin after application of the prodrug/formulation (relative damage)” value is reported as 0.300 mg/cm^2 hour. Further, the solubility in [5] was 3280 µg/mL (≈ 15.2 mM). In addition, the “log partition isopropyl myristate / pH 4.0 acetate buffer” value in data set [6] was 0.359 concentration ratio. The “K, partition coefficient between IPM and pH 4.0 acetate buffer” value in [7] is listed as 0.359.
